Reference: paper PMC4076210, “Discovery of Novel AKT Inhibitors with Enhanced Anti-Tumor Effects in Combination with the MEK Inhibitor” (PLoS ONE, 2014)
Read-outs that look alike come from different tables or passages of the source.

Assays:
CK1γ1(h) = target: T1, CK1γ1(h) (Homo sapiens, UniProt Q9HCP0); experiment: Kinase panel; assay type: biochemical
T1 construct: purchased Millipore KinaseProfiler

[1] = Plasma insulin after single oral dose; assay type: in vivo, mouse
Experimental: Blood glucose levels were determined from tail vein puncture in mice using a handheld glucometer. Plasma Insulin levels were using the Rat Ultrasensitive Insulin ELISA kit (Crystal Chem Inc).

Src(1-530)(h) = target: T2, Src(1-530)(h) (Homo sapiens, UniProt P12931); experiment: Kinase panel; assay type: biochemical
T2 construct: purchased Millipore KinaseProfiler
T2 sequence (P12931 1-530 limits assumed): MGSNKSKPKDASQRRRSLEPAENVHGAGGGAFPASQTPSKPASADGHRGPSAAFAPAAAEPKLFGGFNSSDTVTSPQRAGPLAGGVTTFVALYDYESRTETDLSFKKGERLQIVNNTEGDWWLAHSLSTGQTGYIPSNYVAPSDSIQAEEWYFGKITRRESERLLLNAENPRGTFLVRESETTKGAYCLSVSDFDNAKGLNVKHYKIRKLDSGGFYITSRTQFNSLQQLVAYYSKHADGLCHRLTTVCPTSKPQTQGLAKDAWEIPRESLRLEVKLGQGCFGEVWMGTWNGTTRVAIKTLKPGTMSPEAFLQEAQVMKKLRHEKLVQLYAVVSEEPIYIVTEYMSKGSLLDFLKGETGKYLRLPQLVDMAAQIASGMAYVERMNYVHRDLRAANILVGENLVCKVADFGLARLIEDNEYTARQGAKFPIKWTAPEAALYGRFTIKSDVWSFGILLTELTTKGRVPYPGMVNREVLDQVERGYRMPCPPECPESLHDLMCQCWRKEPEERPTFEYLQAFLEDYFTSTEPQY

ULK2(h) = target: T3, ULK2(h) (Homo sapiens, UniProt Q8IYT8); experiment: Kinase panel; assay type: biochemical
T3 construct: purchased Millipore KinaseProfiler
T3 sequence (Q8IYT8 1-1036): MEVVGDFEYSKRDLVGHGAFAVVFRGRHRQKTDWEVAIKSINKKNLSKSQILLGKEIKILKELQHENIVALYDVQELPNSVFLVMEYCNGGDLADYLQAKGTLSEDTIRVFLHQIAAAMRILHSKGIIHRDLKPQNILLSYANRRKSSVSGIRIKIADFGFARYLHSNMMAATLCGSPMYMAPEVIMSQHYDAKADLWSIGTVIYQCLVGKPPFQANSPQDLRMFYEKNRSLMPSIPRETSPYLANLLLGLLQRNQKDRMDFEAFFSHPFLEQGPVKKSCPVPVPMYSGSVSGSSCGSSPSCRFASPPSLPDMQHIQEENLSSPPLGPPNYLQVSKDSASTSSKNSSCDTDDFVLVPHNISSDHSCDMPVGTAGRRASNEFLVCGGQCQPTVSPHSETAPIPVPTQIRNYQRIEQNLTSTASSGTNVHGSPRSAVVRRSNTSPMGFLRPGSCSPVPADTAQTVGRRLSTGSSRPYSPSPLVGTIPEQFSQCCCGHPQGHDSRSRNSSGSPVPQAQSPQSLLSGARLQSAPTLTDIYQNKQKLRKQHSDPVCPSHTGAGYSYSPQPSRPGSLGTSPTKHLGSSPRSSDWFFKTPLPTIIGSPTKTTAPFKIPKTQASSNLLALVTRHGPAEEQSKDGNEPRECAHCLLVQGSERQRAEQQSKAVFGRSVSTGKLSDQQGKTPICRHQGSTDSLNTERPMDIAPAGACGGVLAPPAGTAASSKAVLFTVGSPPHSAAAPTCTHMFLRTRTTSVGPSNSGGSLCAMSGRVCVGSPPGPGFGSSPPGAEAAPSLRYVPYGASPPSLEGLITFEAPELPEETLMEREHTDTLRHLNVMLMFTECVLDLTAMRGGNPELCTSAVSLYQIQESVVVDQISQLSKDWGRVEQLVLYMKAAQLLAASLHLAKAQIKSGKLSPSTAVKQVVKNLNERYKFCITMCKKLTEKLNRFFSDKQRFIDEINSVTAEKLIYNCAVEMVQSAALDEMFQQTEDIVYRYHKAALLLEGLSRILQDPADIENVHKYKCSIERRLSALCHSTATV

MKK4(m) = target: T4, MKK4(m) (Mus musculus, UniProt P47809); experiment: Kinase panel; assay type: biochemical
T4 construct: purchased Millipore KinaseProfiler
T4 sequence (P47809 2-397 limits assumed): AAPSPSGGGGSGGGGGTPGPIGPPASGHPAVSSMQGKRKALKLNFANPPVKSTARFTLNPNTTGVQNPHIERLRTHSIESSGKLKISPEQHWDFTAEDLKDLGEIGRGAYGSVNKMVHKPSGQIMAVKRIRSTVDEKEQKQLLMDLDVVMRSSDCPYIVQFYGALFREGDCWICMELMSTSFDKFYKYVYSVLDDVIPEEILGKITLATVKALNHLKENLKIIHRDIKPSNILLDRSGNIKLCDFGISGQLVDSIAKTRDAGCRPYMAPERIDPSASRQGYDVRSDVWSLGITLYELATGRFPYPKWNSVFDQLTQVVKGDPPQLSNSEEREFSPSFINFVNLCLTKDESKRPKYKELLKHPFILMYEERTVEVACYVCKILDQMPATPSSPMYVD

EGFR(T790M)(h) = target: T5, EGFR(T790M)(h) (Homo sapiens, UniProt P00533, T790M); experiment: Kinase panel; assay type: biochemical
T5 construct: purchased Millipore KinaseProfiler
T5 sequence (P00533 25-1210 T790M): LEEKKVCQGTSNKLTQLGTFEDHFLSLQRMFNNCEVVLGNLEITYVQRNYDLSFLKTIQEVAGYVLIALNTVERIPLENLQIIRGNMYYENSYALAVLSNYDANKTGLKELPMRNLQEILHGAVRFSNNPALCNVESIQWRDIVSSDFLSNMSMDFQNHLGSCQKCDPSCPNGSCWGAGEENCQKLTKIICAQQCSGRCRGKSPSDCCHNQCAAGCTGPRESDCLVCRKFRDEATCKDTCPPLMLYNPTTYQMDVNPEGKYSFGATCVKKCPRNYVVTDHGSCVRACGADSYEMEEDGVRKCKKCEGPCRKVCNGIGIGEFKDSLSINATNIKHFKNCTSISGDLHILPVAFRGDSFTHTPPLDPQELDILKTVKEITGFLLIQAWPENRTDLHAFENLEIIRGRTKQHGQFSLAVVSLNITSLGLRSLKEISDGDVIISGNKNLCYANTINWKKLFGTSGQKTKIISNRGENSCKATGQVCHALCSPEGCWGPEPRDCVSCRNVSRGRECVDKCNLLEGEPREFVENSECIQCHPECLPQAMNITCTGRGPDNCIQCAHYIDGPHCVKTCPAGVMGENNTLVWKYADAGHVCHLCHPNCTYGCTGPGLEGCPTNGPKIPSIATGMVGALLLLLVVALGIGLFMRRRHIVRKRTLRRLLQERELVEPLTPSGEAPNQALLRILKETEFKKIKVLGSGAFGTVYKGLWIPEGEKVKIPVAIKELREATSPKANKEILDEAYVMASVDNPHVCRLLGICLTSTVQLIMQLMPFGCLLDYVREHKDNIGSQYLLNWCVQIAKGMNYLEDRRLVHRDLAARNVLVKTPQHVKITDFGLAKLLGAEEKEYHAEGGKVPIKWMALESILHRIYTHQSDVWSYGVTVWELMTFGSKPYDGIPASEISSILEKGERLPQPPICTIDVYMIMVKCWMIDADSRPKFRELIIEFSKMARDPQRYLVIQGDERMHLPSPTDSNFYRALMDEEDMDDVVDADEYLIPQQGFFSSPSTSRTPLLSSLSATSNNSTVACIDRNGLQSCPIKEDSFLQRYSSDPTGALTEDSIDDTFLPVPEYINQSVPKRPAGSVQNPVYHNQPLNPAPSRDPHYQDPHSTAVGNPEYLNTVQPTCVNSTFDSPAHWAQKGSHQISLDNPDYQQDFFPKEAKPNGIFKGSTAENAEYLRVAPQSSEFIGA

MRCKβ(h) = target: T6, MRCKβ(h) (Homo sapiens, UniProt Q9Y5S2); experiment: Kinase panel; assay type: biochemical
T6 construct: purchased Millipore KinaseProfiler
T6 sequence (Q9Y5S2 whole entry): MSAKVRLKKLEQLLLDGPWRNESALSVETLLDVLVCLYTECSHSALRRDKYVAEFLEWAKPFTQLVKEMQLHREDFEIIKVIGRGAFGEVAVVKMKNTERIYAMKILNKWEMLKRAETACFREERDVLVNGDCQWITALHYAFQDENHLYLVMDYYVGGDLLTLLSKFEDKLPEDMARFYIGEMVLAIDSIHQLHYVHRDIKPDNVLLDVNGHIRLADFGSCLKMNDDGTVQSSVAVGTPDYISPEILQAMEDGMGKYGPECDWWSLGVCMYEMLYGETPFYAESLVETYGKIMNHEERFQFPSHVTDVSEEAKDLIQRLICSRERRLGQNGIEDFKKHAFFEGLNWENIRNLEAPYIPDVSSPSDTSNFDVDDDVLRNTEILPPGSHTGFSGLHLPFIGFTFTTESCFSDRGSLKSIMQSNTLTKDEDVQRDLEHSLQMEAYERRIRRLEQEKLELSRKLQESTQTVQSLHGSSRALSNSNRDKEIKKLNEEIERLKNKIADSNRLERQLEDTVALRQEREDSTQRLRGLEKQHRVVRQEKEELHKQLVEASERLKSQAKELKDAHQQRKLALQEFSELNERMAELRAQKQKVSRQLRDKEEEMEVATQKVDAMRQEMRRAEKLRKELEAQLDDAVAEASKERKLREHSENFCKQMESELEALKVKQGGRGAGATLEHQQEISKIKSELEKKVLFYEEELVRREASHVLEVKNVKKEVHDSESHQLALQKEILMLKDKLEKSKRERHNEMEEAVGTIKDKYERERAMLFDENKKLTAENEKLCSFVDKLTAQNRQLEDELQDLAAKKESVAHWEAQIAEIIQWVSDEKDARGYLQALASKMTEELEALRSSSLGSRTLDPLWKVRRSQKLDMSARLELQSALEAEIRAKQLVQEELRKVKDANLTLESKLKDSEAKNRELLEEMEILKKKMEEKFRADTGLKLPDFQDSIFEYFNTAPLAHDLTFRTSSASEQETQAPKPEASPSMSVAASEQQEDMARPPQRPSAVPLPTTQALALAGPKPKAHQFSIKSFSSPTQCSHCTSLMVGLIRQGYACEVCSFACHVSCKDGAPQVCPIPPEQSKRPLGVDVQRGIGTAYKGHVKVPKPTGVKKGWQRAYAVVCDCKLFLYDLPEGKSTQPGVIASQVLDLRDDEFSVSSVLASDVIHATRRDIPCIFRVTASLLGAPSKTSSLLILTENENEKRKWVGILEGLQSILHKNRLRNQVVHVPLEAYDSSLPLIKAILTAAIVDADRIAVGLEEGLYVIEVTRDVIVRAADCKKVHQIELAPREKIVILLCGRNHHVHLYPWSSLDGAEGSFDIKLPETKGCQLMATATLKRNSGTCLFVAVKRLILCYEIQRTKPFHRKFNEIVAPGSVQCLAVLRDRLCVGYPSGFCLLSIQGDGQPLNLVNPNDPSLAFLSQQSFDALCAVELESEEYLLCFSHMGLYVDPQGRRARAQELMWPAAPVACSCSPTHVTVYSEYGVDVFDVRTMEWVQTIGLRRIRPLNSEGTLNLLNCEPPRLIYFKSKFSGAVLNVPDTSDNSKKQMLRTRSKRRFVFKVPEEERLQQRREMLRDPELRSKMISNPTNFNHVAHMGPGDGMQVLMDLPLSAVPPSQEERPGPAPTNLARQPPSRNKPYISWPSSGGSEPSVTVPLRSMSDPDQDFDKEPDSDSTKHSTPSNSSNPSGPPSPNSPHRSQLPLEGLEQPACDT

PKCβI(h) = target: T7, PKCβI(h) (Homo sapiens, UniProt P05771); experiment: Kinase panel; assay type: biochemical
T7 construct: purchased Millipore KinaseProfiler
T7 sequence (P05771 whole entry): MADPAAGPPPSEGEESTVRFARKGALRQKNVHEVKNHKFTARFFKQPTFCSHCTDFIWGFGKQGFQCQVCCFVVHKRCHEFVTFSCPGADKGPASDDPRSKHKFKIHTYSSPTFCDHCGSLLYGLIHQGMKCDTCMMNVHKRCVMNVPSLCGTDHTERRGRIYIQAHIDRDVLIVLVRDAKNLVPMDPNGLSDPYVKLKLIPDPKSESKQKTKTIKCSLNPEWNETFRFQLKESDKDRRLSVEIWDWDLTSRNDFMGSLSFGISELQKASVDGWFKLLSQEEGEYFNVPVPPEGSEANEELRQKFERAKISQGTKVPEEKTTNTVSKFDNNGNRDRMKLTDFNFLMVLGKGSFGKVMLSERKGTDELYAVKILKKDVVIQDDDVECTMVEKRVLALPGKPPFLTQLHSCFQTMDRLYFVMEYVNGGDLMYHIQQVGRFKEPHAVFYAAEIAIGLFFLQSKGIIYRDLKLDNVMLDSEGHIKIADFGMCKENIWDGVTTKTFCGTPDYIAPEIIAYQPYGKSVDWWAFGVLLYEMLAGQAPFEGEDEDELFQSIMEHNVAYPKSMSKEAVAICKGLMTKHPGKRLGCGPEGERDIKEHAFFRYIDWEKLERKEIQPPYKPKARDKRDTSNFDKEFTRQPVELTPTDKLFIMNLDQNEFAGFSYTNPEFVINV

T1 sequence (Q9HCP0 whole entry): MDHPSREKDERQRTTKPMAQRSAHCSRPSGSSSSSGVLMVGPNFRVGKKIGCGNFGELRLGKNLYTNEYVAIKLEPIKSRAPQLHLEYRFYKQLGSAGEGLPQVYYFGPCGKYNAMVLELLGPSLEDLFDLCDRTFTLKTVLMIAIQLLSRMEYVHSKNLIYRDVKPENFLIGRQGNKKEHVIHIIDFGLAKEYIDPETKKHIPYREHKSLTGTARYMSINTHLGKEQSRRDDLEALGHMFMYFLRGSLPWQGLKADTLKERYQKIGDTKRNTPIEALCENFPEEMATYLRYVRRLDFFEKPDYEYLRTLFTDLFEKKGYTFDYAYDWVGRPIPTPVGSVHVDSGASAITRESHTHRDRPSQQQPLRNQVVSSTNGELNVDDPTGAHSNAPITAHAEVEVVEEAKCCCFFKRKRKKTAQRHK

Cn1ncc(Cl)c1-c1cc(C(=O)N[C@H](CN)Cc2cccc(F)c2)sc1Cl [GSK2110183]
inhibition at 0.5 µM (CK1γ1(h)): -1% | inhibition at 10 µM (CK1γ1(h)): 20% | time for insulin to return to baseline ([1]; 100 mg/kg single oral dose): ≤ 8 h | insulin level ([1]; 100 mg/kg single oral dose, 4 h post dosing): 105.6 ng/mL | inhibition at 0.5 µM (Src(1-530)(h)): -12% | inhibition at 10 µM (Src(1-530)(h)): 61% | inhibition at 0.5 µM (ULK2(h)): 0% | inhibition at 10 µM (ULK2(h)): 15% | inhibition at 0.5 µM (MKK4(m)): 25% | inhibition at 10 µM (MKK4(m)): 57% | inhibition at 0.5 µM (EGFR(T790M)(h)): -1% | inhibition at 10 µM (EGFR(T790M)(h)): 2% | inhibition at 0.5 µM (MRCKβ(h)): -4% | inhibition at 10 µM (MRCKβ(h)): 11% | inhibition at 0.5 µM (PKCβI(h)): 61% | inhibition at 10 µM (PKCβI(h)): 96%

Cn1ncc(Cl)c1-c1cc(C(=O)N[C@H](CN)Cc2ccc(F)c(F)c2)oc1Cl [GSK2141795]
inhibition at 0.5 µM (CK1γ1(h); 0.5 µM, read-out: % Inhibition): -6% | inhibition at 10 µM (CK1γ1(h); 10 µM, read-out: % Inhibition): 39% | time for insulin to return to normal ([1]; single 30 mg/kg dose): ≤ 8 h | plasma insulin ([1]; single 30 mg/kg dose, concomitant with glucose at 2 h): 188 ng/mL | inhibition at 0.5 µM (Src(1-530)(h); 0.5 µM, read-out: % Inhibition): -30% | inhibition at 10 µM (Src(1-530)(h); 10 µM, read-out: % Inhibition): 30% | inhibition at 0.5 µM (ULK2(h); 0.5 µM, read-out: % Inhibition): 6% | inhibition at 10 µM (ULK2(h); 10 µM, read-out: % Inhibition): 26% | inhibition at 0.5 µM (MKK4(m); 0.5 µM, read-out: % Inhibition): 8% | inhibition at 10 µM (MKK4(m); 10 µM, read-out: % Inhibition): 36% | inhibition at 0.5 µM (EGFR(T790M)(h); 0.5 µM, read-out: % Inhibition): -5% | inhibition at 10 µM (EGFR(T790M)(h); 10 µM, read-out: % Inhibition): 2% | inhibition at 0.5 µM (MRCKβ(h); 0.5 µM, read-out: % Inhibition): -8% | inhibition at 10 µM (MRCKβ(h); 10 µM, read-out: % Inhibition): 3% | inhibition at 0.5 µM (PKCβI(h); 0.5 µM, read-out: % Inhibition): 74% | inhibition at 10 µM (PKCβI(h); 10 µM, read-out: % Inhibition): 97%
